Measurements taken from ChEMBL document CHEMBL1151514, “Imetit and N-methyl derivatives. The transition from potent agonist to antagonist at histamine H3 receptors.1” (Bioorg Med Chem Lett, 1992).

Legend:
[1] = target: T1, Histamine H3 receptor (Rattus norvegicus, UniProt Q9QYN8); assay: Compound was evaluated for antagonistic effect on release of [3H]histamine from rat brain cortical slices with L-[3H]histidine at 0.3 uM; type: functional, tissue-based
[2] = species on record: Rattus norvegicus; assay: Concentrations required for half-maximal inhibition of tritiated amine release from rat cortical slices; type: functional
[3] = system: Mus musculus; assay: Compound was tested for in vivo in mice which produced a decrease in the brain level of N-tele-methylhistamine when administered orally; type: functional; details: po
[4] = target: T1, Histamine H3 receptor; assay: The compound was evaluated for agonistic effect on release of [3H]histamine from rat brain cortical slices with L-[3H]histidine at 0.3 uM; type: functional, tissue-based
[5] = target: T1, Histamine H3 receptor; assay: The compound was evaluated for antagonistic effect on release of [3H]histamine from rat brain cortical slices with L-[3H]histidine at 0.3 uM; type: functional, tissue-based

T1 sequence (Q9QYN8 whole entry): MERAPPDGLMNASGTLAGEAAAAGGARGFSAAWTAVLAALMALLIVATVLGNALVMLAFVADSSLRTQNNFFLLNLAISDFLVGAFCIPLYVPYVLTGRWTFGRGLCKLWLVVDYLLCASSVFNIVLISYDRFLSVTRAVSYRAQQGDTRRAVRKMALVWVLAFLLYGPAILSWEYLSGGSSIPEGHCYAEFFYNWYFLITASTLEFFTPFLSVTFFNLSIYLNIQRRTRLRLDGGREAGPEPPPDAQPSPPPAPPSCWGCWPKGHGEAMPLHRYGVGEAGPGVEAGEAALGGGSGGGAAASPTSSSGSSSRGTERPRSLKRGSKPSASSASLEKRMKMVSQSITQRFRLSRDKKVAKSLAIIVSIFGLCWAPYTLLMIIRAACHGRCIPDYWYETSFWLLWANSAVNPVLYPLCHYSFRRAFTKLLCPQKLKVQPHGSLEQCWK

For `C/N=C(/SCCc1c[nH]cn1)N(C)C`, the Ki [1] was ≥ 500 nM and the EC50 [2] was 1 nM.

For `Br.N=C(N)SCCc1c[nH]cn1` [IMETIT DIHYDROBROMIDE], the ED50 [3] was ~1 mg/kg.

`Br.CNC(=N)SCCc1c[nH]cn1` showed an ED50 [3] of 25 mg/kg and an EC50 [4] of 15 nM.

With `CN(C)C(=N)SCCc1c[nH]cn1` the Ki [5] was 500 nM.

Molecule `C/N=C(\NC)SCCc1c[nH]cn1` has a Ki [5] of 51 nM.

In the case of `c1nc(CCSC2=NCCN2)c[nH]1`, the Ki [5] is reported as 260 nM.
